Results published in PubChem BioAssay AID2060900 (Molecular Pharmacology Branch, DTP, NCI, 2025).

Test system: 521955-158-R2-J5-PDC complex spheroids, viability
Assay: Anticancer human tumor 521955-158-R2-J5-PDC patient-derived pancreatic carcinoma cell line growth inhibition [RAS]
Settings: for IC50: curve of first compound; for viability, T/C: stronger effect = lower value
Method in brief: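 Agents were tested in combination matrices in half-log decrements from a top concentration at or near clinical Cmax (10 microM if undetermined). Targets were multi-cell spheroids of tumour lines plus HUVEC and MSC stromal cells.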
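Also: compound exposure lasted seven days before the viability read.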
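For viability, T/C in this document: spheroids also contain HUVEC endothelial cells and mesenchymal stem cells as stroma.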

C=CC(=O)Nc1cc(Nc2nccc(-c3cn(C)c4ccccc34)n2)c(OC)cc1N(C)CCN(C)C + CCn1c(-c2cc(N3CCN(C)CC3)cnc2C(C)OC)c2c3cc(ccc31)-c1csc(n1)CC(NC(=O)C1CC1C)C(=O)N1CCCC(N1)C(=O)OCC(C)(C)C2
IC50 (second compound 0.000949 µM): < 3.16 nM
IC50 (second compound 0.003 µM): < 3.16 nM
IC50 (second compound 0.00949 µM): < 3.16 nM
IC50 (second compound 0.03 µM): < 3.16 nM
IC50 (second compound 0.0949 µM): < 3.16 nM
IC50 (second compound 0.3 µM): < 3.16 nM
viability, T/C (second compound 0.000949 µM, first compound 0.00316 µM): 44.6%
viability, T/C (second compound 0.000949 µM, first compound 0.01 µM): 53.5%
viability, T/C (second compound 0.000949 µM, first compound 0.0316 µM): 38.4%
viability, T/C (second compound 0.000949 µM, first compound 0.1 µM): 43.4%
viability, T/C (second compound 0.000949 µM, first compound 0.316 µM): 35.7%
viability, T/C (second compound 0.000949 µM, first compound 1 µM): 23.1%
viability, T/C (second compound 0.003 µM, first compound 0.00316 µM): 40.9%
viability, T/C (second compound 0.003 µM, first compound 0.01 µM): 46.9%
viability, T/C (second compound 0.003 µM, first compound 0.0316 µM): 50.2%
viability, T/C (second compound 0.003 µM, first compound 0.1 µM): 43.5%
viability, T/C (second compound 0.003 µM, first compound 0.316 µM): 35.3%
viability, T/C (second compound 0.003 µM, first compound 1 µM): 18.7%
viability, T/C (second compound 0.00949 µM, first compound 0.00316 µM): 41.3%
viability, T/C (second compound 0.00949 µM, first compound 0.01 µM): 39.6%
viability, T/C (second compound 0.00949 µM, first compound 0.0316 µM): 27.2%
viability, T/C (second compound 0.00949 µM, first compound 0.1 µM): 31.3%
viability, T/C (second compound 0.00949 µM, first compound 0.316 µM): 21.5%
viability, T/C (second compound 0.00949 µM, first compound 1 µM): 8.47%
viability, T/C (second compound 0.03 µM, first compound 0.00316 µM): 19.2%
viability, T/C (second compound 0.03 µM, first compound 0.01 µM): 23.2%
viability, T/C (second compound 0.03 µM, first compound 0.0316 µM): 19.4%
viability, T/C (second compound 0.03 µM, first compound 0.1 µM): 18.8%
viability, T/C (second compound 0.03 µM, first compound 0.316 µM): 14.4%
viability, T/C (second compound 0.03 µM, first compound 1 µM): 5.46%
viability, T/C (second compound 0.0949 µM, first compound 0.00316 µM): 16%
viability, T/C (second compound 0.0949 µM, first compound 0.01 µM): 9.37%
viability, T/C (second compound 0.0949 µM, first compound 0.0316 µM): 12.8%
viability, T/C (second compound 0.0949 µM, first compound 0.1 µM): 8.37%
viability, T/C (second compound 0.0949 µM, first compound 0.316 µM): 11.6%
viability, T/C (second compound 0.0949 µM, first compound 1 µM): 2.68%
viability, T/C (second compound 0.3 µM, first compound 0.00316 µM): 16.4%
viability, T/C (second compound 0.3 µM, first compound 0.01 µM): 10.6%
viability, T/C (second compound 0.3 µM, first compound 0.0316 µM): 9.7%
viability, T/C (second compound 0.3 µM, first compound 0.1 µM): 8.57%
viability, T/C (second compound 0.3 µM, first compound 0.316 µM): 6.24%
viability, T/C (second compound 0.3 µM, first compound 1 µM): 3.02%
